Experimental data from PubChem BioAssay AID602168 (The Scripps Research Institute Molecular Screening Center, 2012).
pIC50: −log10 of the molar value. Activity calls are given as the source filed them. No rule for the calls is given here.

Biological target: Nuclear receptor coactivator 1 (Homo sapiens) (UniProt Q15788)
Assay: SRC1 coactivator transcriptional activity inhibitors, dose response, counter-screen for SRC3 inhibitor project, cell-based, luminescence (AID 602168)
Settings: Cell-based SRC1 luciferase reporter

Nuclear receptor coactivator 1 (Homo sapiens), sequence (Q15788 whole entry, looked up): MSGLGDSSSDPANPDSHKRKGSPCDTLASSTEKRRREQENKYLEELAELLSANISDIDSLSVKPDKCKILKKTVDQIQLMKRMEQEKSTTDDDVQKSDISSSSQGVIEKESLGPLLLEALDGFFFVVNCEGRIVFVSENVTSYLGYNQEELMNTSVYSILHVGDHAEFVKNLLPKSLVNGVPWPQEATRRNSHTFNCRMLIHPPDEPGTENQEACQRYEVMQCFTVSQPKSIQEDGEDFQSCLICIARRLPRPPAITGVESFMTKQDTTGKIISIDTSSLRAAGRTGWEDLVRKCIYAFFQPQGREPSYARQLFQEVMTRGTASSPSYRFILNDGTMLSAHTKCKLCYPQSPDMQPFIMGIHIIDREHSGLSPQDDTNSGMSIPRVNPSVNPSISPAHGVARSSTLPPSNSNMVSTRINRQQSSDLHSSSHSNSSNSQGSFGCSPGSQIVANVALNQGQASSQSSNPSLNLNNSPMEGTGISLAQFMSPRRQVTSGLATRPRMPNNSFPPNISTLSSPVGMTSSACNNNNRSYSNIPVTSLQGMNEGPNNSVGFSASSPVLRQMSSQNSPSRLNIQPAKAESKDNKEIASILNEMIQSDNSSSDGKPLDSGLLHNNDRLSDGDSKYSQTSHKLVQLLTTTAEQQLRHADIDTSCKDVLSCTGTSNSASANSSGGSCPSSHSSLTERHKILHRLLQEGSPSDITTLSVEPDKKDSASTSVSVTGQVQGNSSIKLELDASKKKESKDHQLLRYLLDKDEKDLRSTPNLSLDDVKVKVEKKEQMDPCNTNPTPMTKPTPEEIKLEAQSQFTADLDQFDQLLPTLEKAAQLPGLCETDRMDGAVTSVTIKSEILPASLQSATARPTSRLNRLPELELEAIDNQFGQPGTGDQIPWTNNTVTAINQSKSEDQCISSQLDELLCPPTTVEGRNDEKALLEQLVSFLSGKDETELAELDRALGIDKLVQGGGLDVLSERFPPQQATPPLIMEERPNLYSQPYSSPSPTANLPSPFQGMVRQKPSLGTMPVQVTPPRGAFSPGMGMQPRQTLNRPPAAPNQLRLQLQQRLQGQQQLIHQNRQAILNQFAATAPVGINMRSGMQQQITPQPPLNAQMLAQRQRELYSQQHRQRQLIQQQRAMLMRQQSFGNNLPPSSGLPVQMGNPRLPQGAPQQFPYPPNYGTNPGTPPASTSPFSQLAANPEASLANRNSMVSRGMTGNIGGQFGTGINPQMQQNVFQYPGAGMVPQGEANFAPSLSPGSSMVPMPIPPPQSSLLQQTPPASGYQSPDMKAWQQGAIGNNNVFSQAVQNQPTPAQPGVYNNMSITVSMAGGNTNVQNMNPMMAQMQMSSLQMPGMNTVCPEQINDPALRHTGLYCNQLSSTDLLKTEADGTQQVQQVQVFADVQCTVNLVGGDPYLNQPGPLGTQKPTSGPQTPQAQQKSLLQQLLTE

Compound	IC50	pIC50
O=c1[nH]c2ccccc2n1C1CCN(C(c2ccccc2)c2nnnn2Cc2ccccc2)CC1 (stereo not drawn)	inactive	–
CCCS(=O)(=O)Nc1ccc(Nc2c3ccccc3nc3ccccc23)c(OC)c1	–	6.28
CCOc1ccc(/C=C2\SC(=S)N(CCC(=O)O)C2=O)cc1	–	5.04
COc1ccc(CCNC(=O)c2nnn(-c3ccc4c(c3)OCCO4)c2N)cc1OC	> 35.9 µM (inactive)	–
COc1cc2c(cc1OC)C(C)N(C(=O)c1cccc([N+](=O)[O-])c1)CC2 (stereo not drawn)	inactive	–
COc1cc2[nH]c3c(Cl)ncnc3c2cc1OC	> 35.9 µM (inactive)	–
CN(C)c1ccc(C(=S)Nc2ccccc2)cc1	> 35.9 µM (inactive)	–
NC(=S)N/N=C1\CCSc2ccc(Cl)cc21	> 35.8 µM (inactive)	–
Cc1ccc2occ(/C=N/NC(=O)[C@@H](N)Cc3ccccc3)c(=O)c2c1	inactive	–
Nc1nc(=S)c2ncn([C@@H]3O[C@H](CO)[C@@H](O)[C@H]3O)c2[nH]1	> 35.9 µM (inactive)	–
COc1ccc(-c2nsc3c(N4CCCCC4)ncnc23)cc1	> 35.9 µM (inactive)	–
C#CC(=O)N(c1cc(OC)ccc1OC)C(C(=O)NC1CCCC1)c1cccs1 (stereo not drawn)	> 35.9 µM (inactive)	–
Nc1ccc(Oc2ccccc2-c2ccccc2)cc1	inactive	–
CCOC(=O)CC(=O)CSc1nccc(-c2cccnc2)n1	> 35.9 µM (inactive)	–
COc1cc(/C=N/NC(=Nc2ccc(C)cc2)c2nc3ccccc3s2)ccc1O	–	5.09
COc1ccc(COC(=O)C2=C(C)NC(=O)NC2c2ccc(F)cc2)cc1 (stereo not drawn)	inactive	–
CC(=O)/C(N=Nc1ccc2c(c1)OCCO2)=C(\C)O	> 35.9 µM (inactive)	–
O=C(N/N=C\c1ccc([N+](=O)[O-])o1)C1COc2ccccc2O1 (stereo not drawn)	> 35.9 µM (inactive)	–
Cn1cnc([N+](=O)[O-])c1Sc1nc(N)nc2c1ncn2C1OC(CO)C(O)C1O (stereo not drawn)	> 35.9 µM (inactive)	–
Cc1ncc(CO)c(/C=N/NC(=O)c2cc3c(s2)CCCC3)c1O	inactive	–
Cc1nnc(SC(=O)N2c3ccccc3Sc3ccccc32)s1	> 35.9 µM (inactive)	–
CN(C)/C=C/C(=O)c1ccc2noc(-c3ccccc3)c2c1	inactive	–
c1ccc(-c2noc(-c3ccc4ccccc4c3)n2)nc1	inactive	–
O=C(NC1CCCCC1)C(c1cccnc1)N(C(=O)CCl)c1cccc(Cl)c1 (stereo not drawn)	inactive	–
O=C(CCl)NC(Cc1ccccc1)c1ccccc1 (stereo not drawn)	inactive	–
CC1(C)N=C(N)N=C(N)N1CCCCc1ccccc1	–	5.34

Compound	IC50	pIC50
C=C1C(=O)[C@]23C[C@H]1CCC2[C@@]1(C)C(C[C@@H]3O)[C@](C)(C(=O)OC)CC[C@@H]1O (stereo partly drawn)	inactive	–
CCn1nc(/C=C/c2ccccc2)nc2c(=O)n(C)c(=O)nc1-2	> 35.9 µM (inactive)	–
Cc1cccc(NC(=O)c2cc(Cl)ccc2[N+](=O)[O-])c1	inactive	–
O=C(NCCCn1ccnc1)c1ccc(N2CCCCCC2)c([N+](=O)[O-])c1	inactive	–
CN(C)c1ccc(CNC(=O)CCNS(=O)(=O)c2cc(Br)cnc2N)cc1	inactive	–
C(=N\Nc1ccc2ccccc2n1)/c1ccc2c(c1)OCCO2	inactive	–
O=c1[nH]c2ccccc2n1C1CCN(C(c2cc3ccccc3o2)c2nnnn2Cc2ccccc2)CC1 (stereo not drawn)	inactive	–
Cc1nc(N)nc(N)c1-c1ccc(Cl)c(Cl)c1	–	5.27
CCOc1ccc(-c2cc(C)n3nc(C(N)=O)cc3n2)cc1	inactive	–
CCc1nc(N)nc(N)c1-c1ccc(Cl)c([N+](=O)[O-])c1	–	6.22
Cc1ccc(N(CCC#N)C(=O)CCl)cc1C	inactive	–
COc1cccc2c1C(=N)c1c(O)c3c(c(O)c1C2=O)CC(O)(C(C)=O)CC3OC1CC(N)C(O)C(C)O1 (stereo not drawn)	> 35.9 µM (inactive)	–
COc1cc(/C=C(/C(=O)c2cccs2)c2nc3ccccc3[nH]2)cc(OC)c1O	> 35.9 µM (inactive)	–
C=CCn1c(C)cc(C(=O)COc2ccc(C)nc2[N+](=O)[O-])c1C	> 35.9 µM (inactive)	–
C(=N\Nc1nc2ccccc2[nH]1)/c1cccc2cccnc12	> 35.9 µM (inactive)	–
CC1CCN(C2=NC(=O)/C(=C/c3ccccc3F)S2)CC1	> 35.9 µM (inactive)	–
COC(=O)c1cc(S(=O)(=O)NCCc2ccc(Cl)cc2)c[nH]1	inactive	–
O=[N+]([O-])c1ccc(N(CCO)CCO)c2c1no[n+]2[O-]	inactive	–
CCCC(=O)NC(c1ccc(Cl)cc1)c1ccc2cccnc2c1O (stereo not drawn)	–	5.06
Cc1ccc(C(=O)O/N=C(\N)c2ccccn2)c(Cl)c1	> 35.9 µM (inactive)	–
CC(=O)NC(c1cc(Cl)c2cccnc2c1O)C(C)C (stereo not drawn)	–	5.10
Cc1sc2ncnc(N3CCC(C(=O)Nc4ccccc4C(C)(C)C)CC3)c2c1C	–	5.15
C=CCOc1ccc(/C=C2\SC(=S)N(CCC(=O)O)C2=O)cc1	–	5.16
C=CC[n+]1c(-c2ccc(C)cc2)csc1Nc1ccc(NC(C)=O)cc1	> 35.9 µM (inactive)	–
Cc1ccc(OCC(=O)c2cc(C)n(-c3ccccc3)c2C)c([N+](=O)[O-])n1	inactive	–
COc1ccc(C)cc1NS(=O)(=O)c1ccc(NC(=O)CN(c2cc([N+](=O)[O-])ccc2C)S(C)(=O)=O)cc1	inactive	–

Compound	IC50	pIC50
O=c1[nH]c2ccccc2n1C1CCN(C(c2ccccc2)c2nnnn2-c2ccc3c(c2)OCCO3)CC1 (stereo not drawn)	inactive	–
O=C(c1ccncc1)N(Cc1cc2ccccc2[nH]c1=O)C1CCCCC1	–	5.13
CCOC(=O)c1cc2sccc2n1CC(=O)N1CCc2ccccc21	> 35.9 µM (inactive)	–
C/C(=N\NC(=S)Nc1cc(S(=O)(=O)N2CCOCC2)ccc1Cl)c1ccccc1F	inactive	–
CN(C)c1ccc(/C=C/c2ccc3ccccc3n2)cc1	inactive	–
S=C(Nc1ccccc1)Nc1ccc(OCc2ccc(Cl)cc2Cl)cc1	inactive	–
Nc1nccc(-c2ccc(-n3cnc4ccccc43)cc2)n1	–	5.65
c1ccc2c(c1)Nc1ccncc1S2	inactive	–
O=C(CNc1cccc([N+](=O)[O-])c1)N/N=C/c1ccc([N+](=O)[O-])o1	> 35.9 µM (inactive)	–
CNc1ncnc(Sc2nc(N)nc3nc[nH]c23)c1[N+](=O)[O-]	> 35.9 µM (inactive)	–
O=c1[nH]c(O)c(N=Nc2ccc3c(c2)OCCO3)c(=O)[nH]1	> 35.9 µM (inactive)	–
CCOC(=O)C(=CNc1ccc(NC2=NCC(C)S2)cc1)C(=O)OCC (stereo not drawn)	> 35.8 µM (inactive)	–
Cc1nc(N2CCC(C(N)=O)CC2)c2c(-c3cccs3)csc2n1	–	5.08
CC(C)N(c1ccccc1)c1ccc(NC(=O)CCl)cc1	> 35.8 µM (inactive)	–
O=c1[nH]cnc2c1nnn2C1OC(CO)C(O)C1O (stereo not drawn)	> 35.8 µM (inactive)	–
CN(Cc1cnc2nc(N)nc(N)c2n1)c1ccc(C(=O)NC(CCC(=O)O)C(=O)O)c2ccccc12 (stereo not drawn)	> 35.9 µM (inactive)	–
CCCNC(=O)c1nnsc1S(=O)(=O)c1ccc(Cl)cc1	inactive	–
Cc1ccc(C(=O)Nc2cnc3ccccc3c2)cc1	inactive	–
Oc1ccc(C=NNc2ccccn2)c(O)c1	> 35.9 µM (inactive)	–
NC(=O)c1cc(Sc2ccccc2)nc2ccccc12	inactive	–
OCCN1CCN(C(=S)c2ccc(-c3ccccc3)cc2)CC1	–	5.44
COC(=O)c1cccc2c1-c1ccccc1/C2=N/O	–	5.20
O=C(CCl)N(c1ccccc1)C1CCS(=O)(=O)C1 (stereo not drawn)	inactive	–
O=C(COC(=O)c1ccc[nH]c1=O)Nc1ccc(N2CCCCC2)cc1	> 35.9 µM (inactive)	–
O=C(Nc1nc2cc3c(cc2s1)OCCO3)C1=COCCO1	inactive	–
O=S(=O)(c1ccc(F)cc1)c1snnc1-c1ccccc1	> 35.9 µM (inactive)	–

Compound	IC50	pIC50
C[C@@H](C(=O)Nc1ccc2c(c1)OCCO2)n1c(=O)[nH]c2ccccc2c1=O	> 35.9 µM (inactive)	–
O=C(CCl)Nc1cccc(-c2cnc3ccccc3n2)c1	inactive	–
CC(=O)OCCN1c2ccccc2Sc2cnccc21	inactive	–
CN1C(=O)C2(C(C#N)=C(N)N(c3cc(Cl)cc(Cl)c3)C3=C2C(=O)CCC3)c2ccccc21 (stereo not drawn)	> 35.9 µM (inactive)	–
COc1cc2c(c(OC)c1OC)-c1ccc(SC)c(=O)cc1C(NC=O)CC2 (stereo not drawn)	> 35.9 µM (inactive)	–
CN(Cc1cnc2nc(N)nc(N)c2n1)c1ccc(C(=O)NC(CCC(=O)O)C(=O)O)cc1 (stereo not drawn)	> 35.9 µM (inactive)	–
Cc1ccc(C2=NN(C(=O)CCl)C(c3cccs3)C2)o1 (stereo not drawn)	inactive	–
CCOc1ccccc1-n1c(SCC(=O)Nc2ccccc2C(=O)O)nc2ccccc2c1=O	> 35.9 µM (inactive)	–
O=C(OCc1ccccc1)c1ccc(NCc2cc(O)ccc2O)cc1	> 12 µM (inactive)	–
COc1cc(NS(C)(=O)=O)ccc1Nc1c2ccccc2nc2ccccc12	> 35.9 µM (inactive)	–
c1ccc(-c2nnc(-c3ccccn3)nc2NC2CCCCC2)cc1	–	5.36
Fc1ccc(CSc2nnc(-c3ccncc3)o2)cc1	–	5.47
COc1cc2c(ccc3cc(OC)c(OC)c(O)c32)cc1O	inactive	–
Cc1ccc(-n2c(Cl)c(Cl)nc(Cl)c2=O)cc1	inactive	–
CN(Cc1cnc2nc(N)nc(N)c2n1)c1ccc(C(=O)N[C@@H](CCC(=O)O)C(=O)O)cc1	> 35.9 µM (inactive)	–
CCOC(=O)C(C(C)=O)c1c(Br)c(O)c(O)c2c(C(=O)c3ccc(C)cc3)coc12 (stereo not drawn)	> 35.9 µM (inactive)	–
O=C(N/N=C(\c1ccccc1)c1ccccn1)c1ccccc1Cl	inactive	–
O=C(Nc1ccccc1Oc1ccccc1)c1cc([N+](=O)[O-])ccc1Cl	inactive	–
CC(=O)N1CCN(c2ncnc3ccccc23)CC1	inactive	–
Nc1nc(CCl)nc(Nc2cccc3ccccc23)n1	inactive	–
Cc1ccc(N=c2c([N+](=O)[O-])nn(-c3ccc4c(c3)OCCO4)n2O)cc1F	> 35.9 µM (inactive)	–
Cc1cccc(CN2CCN(C(=O)CCl)CC2)c1	> 35.9 µM (inactive)	–
COc1cc(/C=C2\CC(C(C)(C)C)C/C(=C\c3cc(OC)c(OC)c(OC)c3)C2=O)cc(OC)c1OC (stereo not drawn)	> 35.9 µM (inactive)	–
CCC(=O)c1ccc(O)c(CC=C(C)C)c1	inactive	–
CN1C(=O)C2(C(C#N)=C(N)N(c3cc(Cl)cc(Cl)c3)C3=C2C(=O)CC(C)(C)C3)c2ccccc21 (stereo not drawn)	> 35.9 µM (inactive)	–
